# From a melting point compilation (Tetko et al.; mined from patent text by program, amines drawn as free bases though some values may be those of a salt)
row,Structure (SMILES),melting point [°C]
1,CC(C)n1nc(C(Cl)C(=O)c2cccc(F)c2)ccc1=O (stereo unspecified),65.5 to 66.5
2,CC(C)(S)CNCc1ccc(O)cc1,85 to 87
3,CC=Cc1nc2ccc(C)cc2c(=O)[nH]1,232 to 233
4,COC(=O)CCCC(C)(C)c1cc(Cl)c(O)c(Cl)c1,101 to 103
5,O=Cc1nc2cnccc2s1,96.5 to 98
6,COc1ccc2c3c(cn2S(=O)(=O)c2ccc(C)cc2)CC(N=[N+]=[N-])C(=O)c13 (stereo unspecified),147 to 148
7,NC(=O)c1nc(-c2ccccc2)n2c1CN=C(c1ccccc1F)c1cc(Cl)ccc1-2,260 to 262
8,C[C@H](NP(=O)(Cc1ccccc1)Cc1ccccc1)C(=O)N1CCC[C@H]1C(=O)N[C@H](C)C(=O)OCc1ccccc1,82 to 85
9,NC(=O)COc1cccc(CCNS(=O)(=O)c2ccc(Br)cc2)c1,115 to 116
10,CCCCC(=O)c1c(C)nc2cc(OC)c(OC)cc2c1-c1ccc(OC)c(OC)c1,119 to 120
11,CS(=O)(=O)NC1=CC(NC(=O)CCl)([N+](=O)[O-])CC=C1OC1CCCCC1 (stereo unspecified),208 to 210
12,Cc1cc(C=NNC(N)=S)ncc1NO,197 to 198
13,CCC(O)c1ccc(Cl)c2nc3n(c12)CCCN3c1c(Cl)cc(Cl)cc1Cl (stereo unspecified),213 to 214
14,CCCCCc1c(C(C)C)nc(C(C)C)c(CN(C)C)c1-c1ccc(F)cc1,69 to 71
15,CCCOc1ccc(/C=C/C(=O)N2CCOCC2)cc1-c1nc2c(c(C)nn2CCC)c(=O)[nH]1,156 to 157
16,c1ccc(C(Nn2cncn2)c2ccccc2)cc1,142 to 145
17,CN1Cc2c(CO)ncn2-c2cccc(Cl)c2C1=O,207 to 208
18,O=C1C=CC(OCc2ccccc2)N1S(=O)(=O)c1ccccc1 (stereo unspecified),56 to 58
19,O=C(O)c1ccc(-n2cnnc2S)cc1,> 300
20,COC(=O)c1cc(N)nn1C,114 to 118
21,CC1(C)[C@@H]2[C@H]1[C@@H](O)O[C@H]2C(Cl)(Cl)Cl,100 to 105
22,COc1ccc(Cn2c(=O)[nH]c3nccnc3c2=O)cc1,233 to 234
23,O=c1ccoc2c1ccc1ncccc12,146 to 147
24,CC(C)CS(=O)(=O)c1ccnc(OS(C)(=O)=O)c1,75.5 to 76.5
25,CC(C)c1ccc(-c2csc(-c3ccc(C(=O)O)cc3)n2)cc1,257 to 258
26,COc1ccc(C2=C(CC(C)N(CCO)C(C)C)C(=O)NCCC2)cc1 (stereo unspecified),109 to 111
27,COc1c(C)c(C)cc(C)c1C(O)(c1ccc(F)cc1)C(C)C (stereo unspecified),102 to 103

row,Structure (SMILES),melting point [°C]
1,NC(=O)c1c(C(=O)O)cnn1-c1cccc(Cl)c1Cl,228 to 230
2,CCN(CC)CCOC(=O)c1cc2cc(Br)ccc2nn1,90 to 93
3,O=C(O)Cc1nn(-c2nc3ccccc3s2)c(=O)c2ccccc12,205
4,CC=Cc1c(C(C)C)nc(C(C)C)c(CO)c1-c1ccc(F)cc1,46 to 47
5,Cc1cccc(C(=C2CN(C(c3ccccc3)c3ccccc3)C2)S(C)(=O)=O)c1,180
6,CC(OC(=O)c1ccccc1)C(N)=O (stereo unspecified),116 to 117
7,CCCCCCCCCCCCCCCC1Cc2cc(C(=O)O)ccc2N1 (racemic),102 to 104
8,O=C(OCCn1c(-c2ccccc2)nc2cc(CN3CCN(C(c4ccccc4)c4ccccc4)CC3)ccc21)c1ccccc1,164
9,CC12CCC(=O)C(N=[N+]=[N-])=C1CCC1C2CCC2(C)C(OC3CC3)CCC12 (stereo unspecified),104 to 106
10,CC(C)c1nsc(N=C(F)N(C)C)c1C#N,100 to 102
11,CC(CNC(=O)CN1CCCC1=O)N1CCN(C)CC1 (stereo unspecified),84 to 85
12,CN(C)CCN(C)c1ccc2nnc(-c3cnc([N+](=O)[O-])n3C)n2n1,196 to 198
13,CCCN1CCc2c(cccc2NC(=O)c2ccc(OC)cc2)C1,162 to 164
14,NNc1c(S(=O)(=O)C(F)(F)F)cnn1-c1c(Cl)cc(C(F)(F)F)cc1Cl,154
15,COC(=O)CNC(=O)c1ncccc1S,178 to 179
16,"CC(Oc1c(Cl)cccc1Cl)C(N)=O (single isomer, unassigned; (-))",192 to 193
17,COc1ccc(C2CCOCC2)cc1NC(=S)c1ncc[nH]1,189 to 190
18,COCCOc1cc(N(C)S(=O)(=O)c2cccs2)c2[nH]c(C(N)=O)cc2c1,214 to 215
19,CC1(c2nnn[nH]2)CC(Cl)(I)C=CC1N (stereo unspecified),205 to 208
20,C=CCNc1nc(NCC=C)c2scc(Br)c2n1,87 to 88
21,NC1=Nc2ccc(Cl)cc2C2CCCC12F (stereo unspecified),223
22,CCOC(=O)[C@@H](C)OC(=O)c1ccc([N+](=O)[O-])cc1,42 to 43
23,O=S(=O)(c1ccc(Cl)cc1)C(CCSCCO)c1cc(F)ccc1F (stereo unspecified),108 to 110
24,C[C@@H](NCc1ccc(O)cc1)c1cccc2ccccc12,132 to 133
25,CCOCc1nc2c(N)nc(C)c(C)c2n1CCCNC(C)=O,162
26,COc1cc(C(=O)OCC2(N(C)C)CCCc3sccc32)cc(OC)c1OC (stereo unspecified),82 to 83

# Results, then the compound that gave them:
row,melting point [°C],Structure (SMILES)
1,232 to 235,O=P(O)(O)C(F)(F)c1ccc(CN(c2ccc(Cl)c(Cl)c2)c2nnc(-c3cccc(Oc4cccc(-c5nnn[nH]5)c4)c3)s2)cc1Br
2,195 to 199,N#Cc1cc(N)n(-c2c(Cl)cc(-c3ccc(C(F)(F)F)cc3)cc2Cl)n1
3,70,CCCCc1nc(SCC)c2ccccc2c1Cc1ccc(C(=O)OC)cc1
4,164 to 165,CCOC(=O)c1c(Cn2cncn2)nc2sc3c(c2c1-c1ccc(OC)c(OC)c1)CCNC3
5,114 to 115,Cc1ccc(C=O)c(OCc2ccc(OCc3nc(-c4ccccc4)oc3C)cc2)n1
6,245 to 246,CN(C)c1ccc(NC(=O)Cn2c(-c3ccc(Cl)cc3)nc3cccnc32)cc1
7,179 to 180,CC(=O)Nc1ccc(SCC(=O)NCC(=O)N(C)c2ccc(Cl)c(COc3cccc4ccc(C)nc34)c2Cl)cc1
8,121 to 124,Cc1cc(C)cc(C(=O)N2CC[C@H](NCc3ccnc4ccccc34)C[C@H]2Cc2ccc(Cl)c(Cl)c2)c1 (relative stereo)
9,145 to 154,COCOc1c(NC(=O)N(c2ccccc2)C2CCC(NC(=O)OCc3ccccc3)CC2)cc(OC)cc1C(C)(C)C (stereo unspecified)
10,137 to 141,O=C(OCc1ccccc1)N1CCN(C(=O)C(Cc2ccc(O)cc2)NS(=O)(=O)c2cccc3cnccc23)CC1 (stereo unspecified)
11,161,COC[C@@H]1CC(c2ccc(-c3ccc(N4C[C@H](Cn5ccnn5)OC4=O)cc3F)cn2)=NO1
12,173 to 175,COc1ccccc1NC(=O)Nc1ccc(N2CCN(C(=O)Nc3ccc(OCCO)cc3Cl)CC2)c(Cl)c1
13,87 to 97,Cc1noc(NS(=O)(=O)c2ccccc2-c2ccc(-c3nccs3)cc2)c1C
14,140 to 141,Cc1cc(-c2cccc(C(F)(F)F)c2)c2nc(OCC(F)(F)F)nnc2c1
15,124 to 129,NCc1cccc(OCCC2Oc3ccccc3N(Cc3cccc(Cl)c3)C2=O)c1 (stereo unspecified)
16,117 to 118,CCCOc1ccc(S(=O)(=O)N2CCN(CC)CC2)cc1-c1nc2cc3ncn(Cc4cccc(OC)c4)c3cc2c(=O)[nH]1
17,233 to 234,CCc1cc(-c2nc(C)c(-c3ccnc(Nc4ccc(S(=O)(=O)NCCO)cc4)n3)s2)ccn1
18,209 to 212,Fc1cc(OC2CCOCC2)c2c(Nc3c(Cl)ccc4c3OCO4)ncnc2c1
19,197 to 199,CCCc1nc2c(N)nc3cc(Oc4ccccc4N)ccc3c2n1CC(C)C
20,119,CC(C)(C)OC(=O)N1C[C@@H]2C(=O)CCC(c3ccccc3)(c3ccccc3)[C@@H]2C1
21,115,CC#CCOc1ccc(S(=O)(=O)C2(C(=O)NO)CCN(Cc3cccnc3)CC2)cc1
22,263 to 266,FC(F)(F)c1ccc(CN2CC3(COc4cc5c(cc43)CCO5)c3c(-c4cncnc4)cccc32)o1 (stereo unspecified)

row,melting point [°C],Structure (SMILES)
1,254,Cc1ccc(C(=O)C2=C(O)C(=O)N(c3ccc(C)nn3)C2c2ccc(C)cc2C)cc1 (stereo unspecified)
2,178 to 182,CC(C)OC(=O)N1CCC(c2nc3cc(-c4ccc(C(N)=O)cc4Cl)ccc3o2)CC1
3,165 to 166,COc1cc2onc(-c3ccccc3F)c2cc1Cl
4,168 to 169,CCc1cc(OCc2ccc(-c3ccccc3-c3nnn(C(c4ccccc4)(c4ccccc4)c4ccccc4)n3)cc2)c2nc(OCC=O)ccc2n1
5,191 to 193,O=C1c2ccccc2S(=O)(=O)N1/C=C/CSc1nnnn1-c1ccccc1
6,147 to 148,Cc1ccc(-c2ccccc2NC(=N)N(C)C)cc1
7,205 to 209,CC(C)(C)OC(=O)Nc1ccc(-c2ncn(-c3ccc(OC(F)(F)C(F)(F)F)cc3)n2)cc1
8,144 to 147,O=Cc1ccc(OCc2coc(/C=C/c3ccc(S(=O)C(F)(F)F)cc3)n2)cc1 (stereo unspecified)
9,133 to 135,O=C1NCCc2c1c1ccccc1n2COCc1ccccc1
10,229 to 233,CS(=O)(=O)Nn1c(=O)[nH]c2cc(C(F)(F)F)c(-n3cnc(Br)c3)cc2c1=O
11,153 to 155,O=C1C(=O)c2ccccc2C2=C1SCC(COc1cccnc1)O2 (stereo unspecified)
12,41 to 42,O=Cc1cc(-c2ccc(Cl)cc2F)ccc1OC(F)(F)F
13,252 to 254,Cc1ccc2c(c1)C(=O)CCC21CCC(=O)NC1=O (stereo unspecified)
14,197 to 199,FC(F)(F)c1cccc2c1c(N1CCOCC1)nc1c(-c3nc(C4CC4)no3)ncn12
15,134 to 135,O=C1CC2CCSc3sccc3C2=NN1c1ccc(Cl)cc1 (stereo unspecified)
16,> 300,NS(=O)(=O)N1CC2(CCN(C(=O)Nc3nnc(-c4ccccc4)s3)CC2)c2ccccc21
17,112 to 113,CN1CCCc2cccc(CS(=O)c3nc4ccccc4[nH]3)c21 (stereo unspecified)
18,81,CC1CCN(c2ccc([N+](=O)[O-])cc2C(=O)c2ccccc2)CC1
19,144 to 146,COc1ccc(N2CCN(c3c(C)c(C)c4c(c3C)C(=O)C(C)(C)O4)CC2)cc1
20,134 to 136,COC1=C(OC)C(=O)C2=C(CCC(CCOc3ccc4ccccc4n3)CC2)C1=O
21,210,C#Cc1cccc(Nc2nc(Nc3cccc(C#C)c3)nc(-c3ccccc3)n2)c1
